compound: CC1(C)CCC(CN2CCN(c3ccc(C(=O)NS(=O)(=O)c4ccc(NCC5CCOCC5)c([N+](=O)[O-])c4)c(Oc4cnc5[nH]ccc5c4)c3)CC2)=C(c2ccc(Cl)cc2)C1 [Venetoclax] + Cc1cc(Nc2cc(N3CCN(C)CC3)nc(Sc3ccc(NC(=O)C4CC4)cc3)n2)n[nH]1 [Tozasertib] (partner 0.1 µM); assay: relative viability (nuclei count vs DMSO), 5 days (fraction); higher = more cells survive; conditions: first compound 0.3162 µM
In short: (§1)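 Each reported value is a median over duplicate plates. It expresses relative viability: treated-well nuclei count divided by vehicle-well nuclei count. Lung cancer cell lines in 1536-well plates were dosed by pin tool a day after seeding, alone with one drug or with a fixed anchor-drug dose plus five library-drug doses (not always all listed) in √10 steps, and nuclei were counted after 5 days.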

Cell Line	relative viability
NCI-H650	0.697
LK-2	0.18
NCI-H2228	0.246
NCI-H2342	0.568
SK-MES-1	0.852
HARA	0.116
COR-L23	0.16
COR-L 105	0.32
ChaGo-K-1	0.208
SW 900	0.65
NCI-H1648	0.471
NCI-H520	0.443
NCI-H661	0.345
NCI-H1650	0.406
NCI-H2009	0.759
SW 1573	0.137
SK-LU-1	0.336

same assay, conditions: first compound 1 µM

Cell Line	relative viability
NCI-H522	0.437
NCI-H1623	0.403
PC-14	0.531
NCI-H1666	0.587
NCI-H1755	0.547
NCI-H2023	0.218
EPLC-272H	0.336
LCLC-97TM1	0.202
PC-3 [JPC-3]	0.853
LOU-NH91	0.604
NCI-H647	0.262
NCI-H23	0.418
EMC-BAC-2	0.259
NCI-H2126	0.759
HCC-44	0.715
NCI-H1734	0.239
NCI-H650	0.674

Cell Line	relative viability
LK-2	0.192
NCI-H2228	0.25
NCI-H2342	0.656
SK-MES-1	0.708
HARA	0.106
COR-L23	0.182
COR-L 105	0.335
ChaGo-K-1	0.227
SW 900	0.386
NCI-H1648	0.415
NCI-H520	0.403
NCI-H661	0.333
NCI-H1650	0.299
NCI-H2009	0.538
SW 1573	0.171
SK-LU-1	0.286

compound: CC1(C)CCC(CN2CCN(c3ccc(C(=O)NS(=O)(=O)c4ccc(NCC5CCOCC5)c([N+](=O)[O-])c4)c(Oc4cnc5[nH]ccc5c4)c3)CC2)=C(c2ccc(Cl)cc2)C1 [Venetoclax] + NC(=O)Nc1cc(-c2cccc(F)c2)sc1C(=O)N[C@H]1CCCNC1 [AZD7762] (partner 0.2 µM); assay: as above; conditions: first compound 0.01 µM
In short: as §1

Cell Line	relative viability
NCI-H522	1.01
PC-14	0.346
NCI-H1666	0.915
NCI-H1755	0.445
EPLC-272H	0.192
LCLC-97TM1	0.323
PC-3 [JPC-3]	0.787
LOU-NH91	0.766
NCI-H647	0.402
NCI-H23	0.198
EMC-BAC-2	1.11
NCI-H2126	1.06
HCC-44	1.01
NCI-H1734	0.529
NCI-H650	0.986
LK-2	0.634
NCI-H2342	0.734
HARA	0.299
ChaGo-K-1	0.884
SW 900	0.538
NCI-H1792	0.58
NCI-H1703	0.157

same assay, conditions: first compound 0.03162 µM

Cell Line	relative viability
NCI-H522	0.769
PC-14	0.361
NCI-H1666	0.849
NCI-H1755	0.471
EPLC-272H	0.188
LCLC-97TM1	0.26
PC-3 [JPC-3]	0.828
LOU-NH91	0.8
NCI-H647	0.429
NCI-H23	0.268
EMC-BAC-2	1.15
NCI-H2126	1.01
HCC-44	0.99
NCI-H1734	0.671
NCI-H650	1.1
LK-2	0.673
NCI-H2342	0.75
HARA	0.214
ChaGo-K-1	0.854
SW 900	0.696
NCI-H1648	0.69
NCI-H1792	0.698
NCI-H1703	0.136

same assay, conditions: first compound 0.1 µM

Cell Line	relative viability
NCI-H522	0.85
PC-14	0.315
NCI-H1666	0.715
NCI-H1755	0.379
EPLC-272H	0.229
LCLC-97TM1	0.263
PC-3 [JPC-3]	0.89
LOU-NH91	0.723
NCI-H647	0.364
NCI-H23	0.279
EMC-BAC-2	1.07
NCI-H2126	0.932
HCC-44	1.04
NCI-H1734	0.474
NCI-H650	0.872
LK-2	0.461
NCI-H2342	0.491
ChaGo-K-1	0.849
SW 900	0.59
NCI-H1648	0.649
NCI-H1792	0.703
NCI-H1703	0.122

same assay, conditions: first compound 0.3162 µM

Cell Line	relative viability
NCI-H522	0.923
PC-14	0.413
NCI-H1666	0.839
NCI-H1755	0.386
EPLC-272H	0.318
LCLC-97TM1	0.266
PC-3 [JPC-3]	0.836
LOU-NH91	0.777
NCI-H647	0.539
NCI-H23	0.262
EMC-BAC-2	1.08
NCI-H2126	1.02
HCC-44	0.929
NCI-H1734	0.665
NCI-H650	1.22
LK-2	0.356
NCI-H2342	0.388
HARA	0.25
ChaGo-K-1	0.888
SW 900	0.715
NCI-H1648	0.758
NCI-H1792	0.608
NCI-H1703	0.129

same assay, conditions: first compound 1 µM

Cell Line	relative viability
NCI-H522	0.689
PC-14	0.301
NCI-H1666	0.803
NCI-H1755	0.411
EPLC-272H	0.225
LCLC-97TM1	0.25
PC-3 [JPC-3]	0.744
LOU-NH91	0.63
NCI-H647	0.394
NCI-H23	0.199
EMC-BAC-2	1.03
NCI-H2126	1
HCC-44	0.924
NCI-H1734	0.571
NCI-H650	0.899
LK-2	0.381
NCI-H2342	0.53
HARA	0.285
ChaGo-K-1	0.85
SW 900	0.668
NCI-H1648	0.527
NCI-H1792	0.565
NCI-H1703	0.124

compound: Cn1cnc2c(F)c(Nc3ccc(Br)cc3Cl)c(C(=O)NOCCO)cc21 [Selumetinib] + Cc1nc(NC(=O)N2CCC[C@H]2C(N)=O)sc1-c1ccnc(C(C)(C)C(F)(F)F)c1 [Alpelisib] (partner 2 µM); assay: as above; conditions: first compound 0.02 µM
In short: as §1

Cell Line	relative viability
PC-14	0.92
NCI-H1666	0.701
EBC-1	0.779
NCI-H1755	0.896
NCI-H2023	0.592
EPLC-272H	0.749
LCLC-97TM1	0.275
PC-3 [JPC-3]	1.02
LOU-NH91	0.648
NCI-H647	1.14
NCI-H23	0.628
EMC-BAC-2	0.678
NCI-H2126	0.679
Calu-6	0.936
HCC-44	0.88
NCI-H1734	0.638
NCI-H650	1.33

Cell Line	relative viability
LK-2	1.01
NCI-H2228	0.72
SK-MES-1	0.851
HARA	0.701
COR-L23	0.91
COR-L 105	1.29
IA-LM	0.431
A549	0.675
NCI-H1299	1.04
NCI-H520	0.992
NCI-H1792	0.684
NCI-H661	0.653
NCI-H1703	0.368
NCI-H1563	0.969
NCI-H2009	0.99
SW 1573	0.868
SK-LU-1	1.01

same assay, conditions: first compound 0.06325 µM

Cell Line	relative viability
PC-14	0.835
NCI-H1666	0.721
EBC-1	0.591
NCI-H1755	0.845
NCI-H2023	0.429
EPLC-272H	0.656
LCLC-97TM1	0.25
PC-3 [JPC-3]	0.935
LOU-NH91	0.6
NCI-H647	1.09
NCI-H23	0.589
EMC-BAC-2	0.694
NCI-H2126	0.675
Calu-6	0.613
HCC-44	0.72
NCI-H1734	0.66
NCI-H650	1.08

Cell Line	relative viability
LK-2	1.13
NCI-H2228	0.608
SK-MES-1	0.587
HARA	0.647
COR-L23	0.825
COR-L 105	0.746
IA-LM	0.237
A549	0.438
NCI-H1299	1.03
NCI-H520	0.762
NCI-H1792	0.603
NCI-H661	0.598
NCI-H1703	0.25
NCI-H1563	0.838
NCI-H2009	0.713
SW 1573	0.707
SK-LU-1	0.988

same assay, conditions: first compound 0.2 µM

Cell Line	relative viability
PC-14	0.925
NCI-H1666	0.478
EBC-1	0.556
NCI-H1755	0.783
NCI-H2023	0.471
EPLC-272H	0.58
LCLC-97TM1	0.259
PC-3 [JPC-3]	0.9
LOU-NH91	0.577
NCI-H647	0.932
NCI-H23	0.438
EMC-BAC-2	0.645
NCI-H2126	0.58
Calu-6	0.486
HCC-44	0.719
NCI-H1734	0.587
NCI-H650	1.19

Cell Line	relative viability
LK-2	0.949
NCI-H2228	0.416
SK-MES-1	0.56
HARA	0.549
COR-L23	0.793
COR-L 105	0.767
IA-LM	0.216
A549	0.311
NCI-H1299	1.03
NCI-H520	0.86
NCI-H1792	0.485
NCI-H661	0.501
NCI-H1703	0.327
NCI-H1563	0.964
NCI-H2009	0.519
SW 1573	0.618
SK-LU-1	0.838

same assay, conditions: first compound 0.6325 µM

Cell Line	relative viability
PC-14	0.848
NCI-H1666	0.551
EBC-1	0.361
NCI-H1755	0.856
NCI-H2023	0.547
EPLC-272H	0.66
LCLC-97TM1	0.185
PC-3 [JPC-3]	0.752
LOU-NH91	0.586
NCI-H647	0.809
NCI-H23	0.358
EMC-BAC-2	0.712
NCI-H2126	0.532
Calu-6	0.346
HCC-44	0.663
NCI-H1734	0.596
NCI-H650	1.09

Cell Line	relative viability
LK-2	0.985
NCI-H2228	0.411
SK-MES-1	0.396
HARA	0.353
COR-L23	0.654
COR-L 105	0.6
IA-LM	0.191
A549	0.296
NCI-H1299	0.697
NCI-H520	1
NCI-H1792	0.386
NCI-H661	0.606
NCI-H1703	0.314
NCI-H1563	0.877
NCI-H2009	0.486
SW 1573	0.552
SK-LU-1	0.542
